These results are taken from patent publication US8951961B2, “Structural and mechanistic basis for novel compound biosynthesis using 4-electron hexose oxidase” (Academia Sinica, priority 2009, dated 2015).

In one assay the test system is E. faecalis ATCC 51299. As to the kind of experiment: Minimum Inhibition Concentrations (MICs) Test. It is filed as cell-based, Enterococcus Faecalis. The following applies: E. faecalis ATCC 51299, low level VRE.
In another assay the test system is S. Aureus ATCC 29213. As to the kind of experiment: Minimum Inhibition Concentrations (MICs) Test. It is filed as cell-based, Staphylococcus Aureus. The following applies: S. Aureus ATCC 29213, methacillin-sensitive strain.
The subject of a further assay is S. Aureus ATCC 700699. As to the kind of experiment: Minimum Inhibition Concentrations (MICs) Test. It is filed as cell-based, Staphylococcus Aureus. Particulars: S. Aureus ATCC 700699, resistant to methacillin, reduced vancomycin susceptibility.
The next assay deals with E. faecalis (ATCC 51559). As to the kind of experiment: In vivo animal study, sepsis in mice. On the set-up: species or system ICR female mice. Particulars: 10 mg/kg/dose i.v. twice a day, day 1 to day 3. The method, then: 12 ICR female mice with an average body weight of 27 g to 30 g were used in this experiment. Mice had free access to water and food at all time. Sepsis was induced in mice by intravenous (i.v.) injection of […] cfu/mouse of E. faecalis (ATCC 51559) on day 0. The mice were randomized into the following four treatment groups at the start of the experiment:
Each mouse received 10 mg/kg/dose of the medication by intravenous route, twice a day from day 1 to day 3, for a total of 6 doses. Mice were anesthetized and blood was taken from the orbital sinus on day 1, day 2, and day 3. The blood sample was diluted with PBS, plated on Brain Heart infusion agar (BHI agar; Difico, Detroit, Mich., USA) and cultured for colony formation unit.
Data were expressed as mean±SD and the statistical analysis was performed using SigmaStat®. Differences were considered to be significant if the P value was <0.05.

Another assay has as its system E. faecalis ATCC 51559. As to the kind of experiment: Minimum Inhibition Concentrations (MICs) Test. The following applies: E. faecalis ATCC 51559, multidrug-resistant strain (VRE). It is filed as cell-based, Enterococcus Faecalis.
A further assay relates to E. faecalis ATCC 33186. As to the kind of experiment: Minimum Inhibition Concentrations (MICs) Test. Format: cell-based, Enterococcus Faecalis. Particulars: E. faecalis ATCC 33186, antibiotics sensitive strain.
In a further assay the test system is E. faecalis ATCC 29302. As to the kind of experiment: Minimum Inhibition Concentrations (MICs) Test. Format: cell-based, Enterococcus Faecalis. Particulars: E. faecalis ATCC 29302, standard strain; no growth in duplicate.
The test system of another assay is E. faecalis ATCC 700221. As to the kind of experiment: Minimum Inhibition Concentrations (MICs) Test. It is filed as cell-based, Enterococcus Faecalis. The following applies: E. faecalis ATCC 700221, resistant to vancomycin.

Take Teicoplanin [Compound 4]: the MIC (commonly the least concentration at which growth counts as inhibited) with E. faecalis ATCC 51299 is 0.5 µg/mL; in the assay on S. Aureus ATCC 29213, 0.5 µg/mL; against S. Aureus ATCC 700699, 8 µg/mL; against E. faecalis ATCC 51559, over 32 µg/mL; with E. faecalis ATCC 33186, 0.25 µg/mL; against E. faecalis ATCC 29302 it was 0.125 µg/mL. In the assay with E. faecalis ATCC 700221, this substance displayed an MIC of over 32 µg/mL. In addition, the “whole blood bacterial counts over the 3-day period” value with E. faecalis (ATCC 51559) was “suppressed”.
